# Test results reported in patent US20250380702A1, “HERBICIDAL MIXTURES COMPRISING L-GLUFOSINATE OR ITS SALT AND A SECOND HERBICIDE” (BASF SE, priority 2022, published 2025).
# Where “and” joins values, the source holds several entries; their conditions need not be identical. Equal values may be shown once. Read-outs that look alike come from different tables or passages of the source.
# Columns and labels:
# Assay in all cases: Greenhouse post emergence treatment, herbicidal activity
# POLAV = assay type: in vivo, Polygonum aviculare; conditions: solo application, 7 DAT
# Description: (§1) Synergism can be described as an interaction where the combined effect of two or more compounds is greater than the sum of the individual effects of each of the compounds. The presence of a synergistic effect in terms of percent control, between two mixing partners (X and Y) can be calculated using the Colby equation (Colby, S. R., 1967, Calculating Synergistic and Antagonistic Responses in Herbicide Combinations, Weeds, 15, 21-22):
# (§2) When the observed combined control effect is greater than the expected (calculated) combined control effect (E), then the combined effect is synergistic.
# (§3) The culture containers used were plastic flowerpots containing loamy sand with approximately 3.0% of humus as the substrate. The seeds of the test plants were sown separately for each species and/or resistant biotype. For the pre-emergence treatment, the active ingredients, which had been suspended or emulsified in water, were applied directly after sowing by means of finely distributing nozzles. The containers were irrigated gently to promote germination and growth and subsequently covered with transparent plastic hoods until the plants had rooted. This cover caused uniform germination of the test plants, unless this had been impaired by the active ingredients. For the post-emergence treatment, the test plants were first grown to a height of 3 to 15 cm, depending on the plant habit, and only then treated with the active ingredients which had been suspended or emulsified in water. For this purpose, the test plants were either sown directly and grown in the same containers, or they were first grown separately as seedlings and transplanted into the test containers a few days prior to treatment. Depending on the species, the plants were kept at 10-25° C. or 20-35° C., respectively. The test period extended to 20 days after treatment. During this time, the plants were tended, and their response to the individual treatments was evaluated. The evaluation was carried out by using a scale from 0 to 100. 100 means no emergence of the plants or complete destruction of at least the above-ground parts, and 0 means no damage, or normal course of growth.
# (§4) As indicated in the respective examples, assessment was either after 7 days or 20 days after treatment (DAT).
# CHEAL = assay type: in vivo, Chenopodium album; conditions: solo application, 7 DAT
# Description: as §1, §2, §3, §4
# Volunteer HORVS = assay type: in vivo, Volunteer Barley; conditions: for % activity: solo application, post emergence
# Description: as §1, §2, §3, §4
# ABUTH = assay type: in vivo, Abutilon theophrasti; conditions: solo application; for inhibition at 250 g/ha: Abutilon theophrasti, 250 gai/ha
# Description: as §1, §2, §3, §4
# AVEFA = assay type: in vivo, Avena fatua; conditions: solo application, 7 DAT
# Description: as §1, §2, §3, §4
# KCHSC = assay type: in vivo, Bassia scoparia; conditions: for % activity: solo application, post emergence, 7 DAT
# Description: as §1, §2, §3, §4
# [1] = Bassia scoparia, post-emergence, 168 h, read-out: % activity
smiles,measurement,setting,value
"CP(=O)(O)CC[C@H](N)C(=O)O.N [L-Glu, ammonium (2S)-2-amino-4-(methylphosphinato) butyric acid]",inhibition at 500 g/ha,"POLAV; Polygonum aviculare, 168 h, 500 gai/ha",95%
same,inhibition at 1000 g/ha,"POLAV; Polygonum aviculare, 168 h, 1000 gai/ha",95%
same,inhibition at 500 g/ha,"CHEAL; Chenopodium album, 168 h, 500 gai/ha",95%
same,inhibition at 1000 g/ha,"CHEAL; Chenopodium album, 168 h, 1000 gai/ha",95%
same,inhibition at 125 g/ha,"Volunteer HORVS; Hordeum vulgare, post-emergence, 168 h, read-out: % activity, solo application, 125 gai/ha, post emergence, 7 DAT",90%
same,inhibition at 250 g/ha,"Volunteer HORVS; Hordeum vulgare, post-emergence, 168 h, read-out: % activity, solo application, 250 gai/ha, post emergence, 7 DAT",90%
same,inhibition at 500 g/ha,"Volunteer HORVS; Hordeum vulgare, post-emergence, 168 h, read-out: % activity, solo application, 500 gai/ha, post emergence, 7 DAT",95%
same,inhibition at 250 g/ha,"Volunteer HORVS; Hordeum vulgare, post-emergence, 480 h, read-out: % activity, solo application, 250 gai/ha, post emergence, 20 DAT",75%
same,inhibition at 500 g/ha,"Volunteer HORVS; Hordeum vulgare, post-emergence, 480 h, read-out: % activity, solo application, 500 gai/ha, post emergence, 20 DAT",85%
same,% activity,"Volunteer HORVS; 125 gai/ha, 20 DAT",65% and 35%
same,inhibition at 250 g/ha,"ABUTH; 168 h, 7 DAT",75%
same,inhibition at 250 g/ha,"ABUTH; 480 h, 20 DAT",60%
same,inhibition at 500 g/ha,"AVEFA; Avena fatua, 168 h, 500 gai/ha",90%
same,inhibition at 1000 g/ha,"AVEFA; Avena fatua, 168 h, 1000 gai/ha",90%
same,inhibition at 250 g/ha,KCHSC; [1],88%
same,inhibition at 500 g/ha,KCHSC; [1],88%
same,inhibition at 1000 g/ha,KCHSC; [1],90%
CN1C[C@H](c2cccc(C(F)(F)F)c2)[C@@H](C(=O)Nc2ccccc2F)C1=O [Tetflupyrolimet],% activity,POLAV; 50 gai/ha,5%
same,% activity,POLAV; 100 gai/ha,5%
same,% activity,CHEAL; 50 gai/ha,15%
same,% activity,CHEAL; 100 gai/ha,25%
same,% activity,"Volunteer HORVS; 12.5 gai/ha, 7 DAT",0%
same,% activity,"Volunteer HORVS; 12.5 gai/ha, 20 DAT",5% and 0%
same,% activity,"Volunteer HORVS; 25 gai/ha, 7 DAT",0%
same,% activity,"Volunteer HORVS; 25 gai/ha, 20 DAT",5%
same,% activity,"Volunteer HORVS; 50 gai/ha, 7 DAT",0%
same,% activity,"Volunteer HORVS; 50 gai/ha, 20 DAT",5%
same,% activity,"Volunteer HORVS; 100 gai/ha, 7 DAT",5%
same,% activity,"ABUTH; 25 gai/ha, 7 DAT",0%
same,% activity,"ABUTH; 25 gai/ha, 20 DAT",0%
same,% activity,"ABUTH; 100 gai/ha, 7 DAT",0%
same,% activity,"ABUTH; 100 gai/ha, 20 DAT",0%
same,% activity,AVEFA; 50 gai/ha,0%
same,% activity,AVEFA; 100 gai/ha,0%
same,% activity,KCHSC; 25 gai/ha,0%
same,% activity,KCHSC; 50 gai/ha,0%
same,% activity,KCHSC; 100 gai/ha,2.5%
